Consider 16 compounds from patent EP4745134A1 (Jiangsu Yahong Meditech Co., Ltd., priority 2023, dated 2025).

One test has as its target PRMT5-MTA (Homo sapiens, UniProt O14744). Kind of test: Enzymatic inhibitory activity against PRMT5-MTA (AlphaScreen). In kind it is biochemical. Put shortly: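 PRMT5/[…] (1 nM) was preincubated for 30 min at room temperature with 1 µM […] and 2.5 µM SAM, then exposed to compound (10-point, 3-fold from 1000 nM) for 15 min at 23 °C. Histone H4 substrate (5 nM) was added and reacted for 45 min at 23 °C. Symmetric dimethyl-R3 H4 was detected by AlphaScreen and IC50 calculated.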
(In Alpha technology, singlet oxygen from a donor bead excites a nearby acceptor bead.)

In a further test the test system is HCT116 MTAP KO cells. As to the kind of experiment: Inhibitory activity against cell proliferation (CellTiter Glo, 6 days), HCT116 MTAP KO. In kind it is cell-based. The conditions noted are these: for IC50: Homo sapiens, HCT-116, 144 h, HCT116 MTAP KO cells, 6 days, CellTiter Glo, read-out: HCT116 MTAP KO IC50; for Selectivity HCT 116-WT/ HCT116 MTAP KO: ratio of IC50 HCT116-WT / HCT116 MTAP KO. Put shortly: (§1)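 Following overnight attachment of 250 cells per well in McCoy's 5A medium with 10% FBS, compounds spanning 8 concentrations (4-fold, top 10000 nM) were applied for 6 days. Growth inhibition IC50 was derived from luminescent ATP signal.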

The test system of a further test is HCT116-WT cells. As to the kind of experiment: Inhibitory activity against cell proliferation (CellTiter Glo, 6 days), HCT116-WT. In kind it is cell-based. The conditions noted are these: 144 h, HCT116-WT cells, 6 days, CellTiter Glo; read-out: HCT116-WT IC50. Put shortly:
as §1
Background: In ATP-based viability assays light output follows the ATP content of the culture.

By IC50 is commonly meant the concentration at which inhibition is half-maximal.

Where two headings read alike, the source gives them in different places.

Chain of PRMT5-MTA (O14744 whole entry): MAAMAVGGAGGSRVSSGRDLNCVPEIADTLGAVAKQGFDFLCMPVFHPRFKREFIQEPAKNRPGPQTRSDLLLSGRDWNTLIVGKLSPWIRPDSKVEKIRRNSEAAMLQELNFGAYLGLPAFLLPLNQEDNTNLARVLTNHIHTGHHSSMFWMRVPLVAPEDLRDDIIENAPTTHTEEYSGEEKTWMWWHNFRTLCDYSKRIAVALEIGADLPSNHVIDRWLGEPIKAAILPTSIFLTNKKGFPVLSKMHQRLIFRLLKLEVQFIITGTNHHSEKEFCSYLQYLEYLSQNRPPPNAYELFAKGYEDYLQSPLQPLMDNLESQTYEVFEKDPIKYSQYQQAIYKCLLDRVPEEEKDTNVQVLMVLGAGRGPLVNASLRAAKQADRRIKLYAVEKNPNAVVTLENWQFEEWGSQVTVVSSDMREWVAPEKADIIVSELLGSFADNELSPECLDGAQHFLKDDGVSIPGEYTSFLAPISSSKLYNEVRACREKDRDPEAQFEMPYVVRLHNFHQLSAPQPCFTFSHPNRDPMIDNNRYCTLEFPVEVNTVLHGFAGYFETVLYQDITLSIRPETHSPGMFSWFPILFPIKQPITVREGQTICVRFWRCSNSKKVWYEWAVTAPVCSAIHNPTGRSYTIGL
Chain of PRMT5-MTA (Q9BQA1 whole entry partner): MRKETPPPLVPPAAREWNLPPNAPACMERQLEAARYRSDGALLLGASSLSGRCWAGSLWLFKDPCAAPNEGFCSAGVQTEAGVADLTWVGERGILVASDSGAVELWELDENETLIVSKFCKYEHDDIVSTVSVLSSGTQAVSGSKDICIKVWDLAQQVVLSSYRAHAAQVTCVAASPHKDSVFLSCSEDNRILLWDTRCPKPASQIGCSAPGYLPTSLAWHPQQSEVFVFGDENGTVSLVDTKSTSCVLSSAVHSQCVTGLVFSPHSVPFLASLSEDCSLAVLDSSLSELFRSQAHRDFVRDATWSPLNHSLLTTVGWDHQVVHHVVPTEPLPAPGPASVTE

Take `Cc1cc2cc(C(=O)N(Cc3ccc(C4=CCOCC4)cn3)N(C)c3ncccn3)ccc2nc1N` [Example 159, 2-amino-N-((5-(3,6-dihydro-2H-pyran-4-yl)pyridin-2-yl)methyl)-N',3-dimethyl-N' -(pyrimidin-2-yl)quinoline-6-carbohydrazide]: the IC50 on PRMT5-MTA (read-out: IC50) amounted to 3.3 nM; in the test with HCT116 MTAP KO cells, 72 nM; in the test on HCT116-WT cells, 2070 nM. The “Selectivity HCT 116-WT/ HCT116 MTAP KO” value in the test with HCT116 MTAP KO cells is on record as 28.76.

As for `Cc1cc2cc(C(=O)N(Cc3ccc(C(F)(F)F)cn3)N(C)c3ncc4ccn(C)c4n3)ccc2nc1N` [Example 126, 2-amino-N',3-dimethyl-N'-(7-methyl-7H-pyrrolo[2,3-d]pyrimidin-2-yl)-N-((5-(trifluoromethyl)pyridin-2-yl)methyl)quinoline-6-carbohydrazide], the half-inhibitory concentration (IC50) at PRMT5-MTA (read-out: IC50) amounted to 1.3 nM; in the test on HCT116 MTAP KO cells, 90 nM; in the test on HCT116-WT cells it was 1480 nM. Moreover, the “Selectivity HCT 116-WT/ HCT116 MTAP KO” value in the test on HCT116 MTAP KO cells came out at 16.41.

Consider `Cc1cc2cc(C(=O)N(Cc3ccc(-c4cccnc4)cn3)N(C)c3ncccn3)ccc2nc1N` [Example 172, N-([3,3'-bipyridine]-6-ylmethyl)-2-amino -N',3-dimethyl-N'-(pyrimidin-2-yl)quinoline-6-carbohydrazide], for which the IC50 at PRMT5-MTA (read-out: IC50) was 2.1 nM; with HCT116 MTAP KO cells, 24 nM; in the test on HCT116-WT cells it was 1750 nM. Further, the “Selectivity HCT 116-WT/ HCT116 MTAP KO” value with HCT116 MTAP KO cells came to 73.08.

On to `Cc1cc2nc(N)c3cnn(C)c3c2cc1C(=O)N1CC(C)CN1c1ccccc1Cl` (stereo not drawn) [Example 382, (4-amino-1,7-dimethyl-1H-pyrazolo[4,3-c]quinolin-8-yl)(2-(2-chlorophenyl)-4-methylpyrazolidin-1-yl)methanone], for which the IC50 amounted to 4.8 nM on PRMT5-MTA (read-out: IC50), 124 nM in the test on HCT116 MTAP KO cells and 1540 nM in the test with HCT116-WT cells. Also, the “Selectivity HCT 116-WT/ HCT116 MTAP KO” value in the test with HCT116 MTAP KO cells is listed as 12.40.

Turning to `Cn1ncc2c(N)nc3cc(Cl)c(C(=O)N4CC(C)(F)CN4c4ncccc4F)cc3c21` (stereo not drawn) [Example 425, (4-amino-7-chloro-1-methyl-1H-pyrazolo [4,3-c]quinolin-8-yl)(4-fluoro-2-(3-fluoropyridin-2-yl)-4-methylpyrazolidin-1-yl)m ethanone], the IC50 stood at 8.3 nM on PRMT5-MTA (read-out: IC50), 54 nM in the test with HCT116 MTAP KO cells and 850 nM in the test with HCT116-WT cells. Further, the “Selectivity HCT 116-WT/ HCT116 MTAP KO” value with HCT116 MTAP KO cells turned out to be 15.74.

Take `Cc1cc2cc(C(=O)N(Cc3ncc(Br)cc3F)N(C)c3ncccn3)ccc2nc1N` [Example 277, 2-amino-N-((5-bromo-3-fluoropyridin-2-yl)methyl)-N',3-dimethyl-N'-(pyrimidin-2-yl)quinoline-6-carbohydrazide]: the results for the IC50 at PRMT5-MTA (read-out: IC50), in the test on HCT116 MTAP KO cells and in the test on HCT116-WT cells were 2.2 nM, 79 nM and 1910 nM, respectively. In addition, the “Selectivity HCT 116-WT/ HCT116 MTAP KO” value in the test with HCT116 MTAP KO cells is listed as 24.23.

For `Cc1cc2nc(N)c3cnn(C)c3c2cc1C(=O)N1CC(CO)CN1c1ncccc1F` (stereo not drawn) [Example 358, (4-amino-1,7-dimethyl-1H-pyrazolo[4,3-c]quinolin-8-yl)(2-(3-fluoropyridin-2-yl)-4-(hydroxymethyl)pyrazolidin-1-yl)methanone], the values for the IC50 at PRMT5-MTA (read-out: IC50), in the test on HCT116 MTAP KO cells and in the test on HCT116-WT cells were 6.7 nM, 303 nM and above 10000 nM, respectively. Also, in the test with HCT116 MTAP KO cells, the “Selectivity HCT 116-WT/ HCT116 MTAP KO” value is listed as above 33.00.

Take `Cc1cc2cc(C(=O)N(Cc3ccc(C(F)F)cn3)N(C)c3ncccn3)ccc2nc1N` [Example 273, 2-amino-N-((5-(difluoromethyl)pyridin-2-yl)methyl)-N',3-dimethyl-N'-(pyrimidin-2-yl)quinoline-6-carbohydrazide]: the values for the 50% inhibitory concentration (IC50) at PRMT5-MTA (read-out: IC50), with HCT116 MTAP KO cells and in the test on HCT116-WT cells were 2.8 nM, 78 nM and 2280 nM, respectively. For the same compound, the “Selectivity HCT 116-WT/ HCT116 MTAP KO” value in the test with HCT116 MTAP KO cells was determined as 29.27.

For `Cc1cc2nc(N)c3ccncc3c2cc1C(=O)N1CC(C)CN1c1ncccc1F` (stereo not drawn) [Example 502, (5-amino-8-methylbenzo[C] [2,6]naphthyridin-9-yl)(2-(3-fluoropyridin-2-yl)-4-methylpyrazolidin-1-yl)methanone], the results for the IC50 on PRMT5-MTA (read-out: IC50), in the test with HCT116 MTAP KO cells and in the test on HCT116-WT cells were 5.2 nM, 140 nM and 1510 nM, respectively. In the test with HCT116 MTAP KO cells, the “Selectivity HCT 116-WT/ HCT116 MTAP KO” value amounted to 10.79.

On to `Cn1ncc2c(N)nc3cc(F)c(C(=O)N4CCCN4c4ccc(C(F)(F)F)cn4)cc3c21` [Example 340, (4-amino-7-fluoro-1-methyl-1H-pyrazolo [4,3-c]quinolin-8-yl)(2-(5-(trifluoromethyl)pyridin-2-yl)pyrazolidin-1-yl)methanone], for which the 50% inhibitory concentration (IC50) on PRMT5-MTA (read-out: IC50) was 4.2 nM; in the test with HCT116 MTAP KO cells it was 295 nM; in the test with HCT116-WT cells, above 10000 nM.

On to `COC1CN(C(=O)c2cc3c(cc2Cl)nc(N)c2cnn(C)c23)N(c2ncccc2F)C1` (stereo not drawn) [Example 444, (4-amino-7-chloro-1-methyl-1H-pyrazolo [4,3-c]quinolin-8-yl)(2-(3-fluoropyridin-2-yl)-4-methoxypyrazolidin-1-yl)methanone], for which the IC50 at PRMT5-MTA (read-out: IC50) stood at 3.7 nM; with HCT116 MTAP KO cells it was 80 nM; in the test on HCT116-WT cells it was 1230 nM. Further, in the test with HCT116 MTAP KO cells, the “Selectivity HCT 116-WT/ HCT116 MTAP KO” value is given as 15.43.

Turning to `COCC1CN(C(=O)c2cc3c(cc2C)nc(N)c2cnn(C)c23)N(c2ncccc2F)C1` (stereo not drawn) [Example 357], the IC50 at PRMT5-MTA turned out to be 3.4 nM; with HCT116 MTAP KO cells, 16 nM; with HCT116-WT cells, 852 nM. The “Selectivity HCT 116-WT/ HCT116 MTAP KO” value in the test with HCT116 MTAP KO cells was 53.25.

As to `C=C1CN(C(=O)c2cc3c(cc2Cl)nc(N)c2cnn(C)c23)N(c2ncccc2F)C1` [Example 433, (4-amino-7-chloro-1-methyl-1H-pyrazolo [4,3-c]quinolin-8-yl)(2-(3-fluoropyridin-2-yl)-4-methylenepyrazolidin-1-yl)methanone], the values for the IC50 at PRMT5-MTA (read-out: IC50), in the test on HCT116 MTAP KO cells and in the test on HCT116-WT cells were 3.8 nM, 33 nM and 1110 nM, respectively. In addition, the “Selectivity HCT 116-WT/ HCT116 MTAP KO” value in the test with HCT116 MTAP KO cells is on record as 33.64.

On to `Cc1cc2cc(C(=O)N(Cc3ccc(-c4ccncc4)cn3)N(C)c3ncccn3)ccc2nc1N` [Example 173, N-([3,4'-bipyridine]-6-ylmethyl)-2-amino -N',3-dimethyl-N'-(pyrimidin-2-yl)quinoline-6-carbohydrazide], for which the half-maximal inhibitory concentration (IC50) was 1.9 nM on PRMT5-MTA (read-out: IC50), 21 nM with HCT116 MTAP KO cells and 633 nM with HCT116-WT cells. In addition, in the test with HCT116 MTAP KO cells, the “Selectivity HCT 116-WT/ HCT116 MTAP KO” value was found to be 30.14.

As to `Cc1cc2cc(C(=O)N(Cc3ccc(C(F)(F)F)cn3)N(C)c3ncc(C(F)(F)F)cc3F)ccc2nc1N` [Example 102, 2-amino-N'-(3-fluoro-5-(trifluoromethyl)pyridin-2-yl)-N',3-dimethyl-N-((5-(trifluoromethyl)pyridin-2-yl)methyl)quinoline-6-carbohydrazide], the IC50 was 1.7 nM at PRMT5-MTA (read-out: IC50), 348 nM in the test on HCT116 MTAP KO cells and 3550 nM in the test on HCT116-WT cells. For the same compound, the “Selectivity HCT 116-WT/ HCT116 MTAP KO” value in the test with HCT116 MTAP KO cells worked out at 10.19.

As for `Cc1cc2nc(N)c3cnn(C)c3c2cc1C(=O)N1CC(C(F)(F)F)CN1c1ncccc1F` (stereo not drawn) [Example 350, (4-amino-1,7-dimethyl-1H-pyrazolo[4,3-c]quinolin-8-yl)(2-(3-fluoropyridin-2-yl)-4-(trifluoromethyl)pyrazolidin-1-yl)methanone], the results for the IC50 at PRMT5-MTA (read-out: IC50), with HCT116 MTAP KO cells and in the test with HCT116-WT cells were 3.5 nM, 29 nM and 1030 nM, respectively. In addition, the “Selectivity HCT 116-WT/ HCT116 MTAP KO” value in the test with HCT116 MTAP KO cells is 35.38.
